Patent publication US9439432B2, “Phenylisoxazoline-based compound having herbicidal activity and use thereof” (MOGHU RESEARCH CENTER LTD, priority 2011, dated 2016)

test system: Echinochloa crusgalli; assay: Post-emergence treatment, herbicidal efficacy on barnyardgrass; assay type: in vivo; details: post-emergence, 125 g/ha, 4 weeks after spraying, scale 0 to 10
Protocol: (§1) A rectangular plastic pot having a surface area of 300 cm^2 was filled with sandy loam soil and mixed bed soil which were mixed at a ratio of 1:1, and then, barnyardrass (Echinochloa crusgalli), large crabgrass (Digitaria sanguinalis), blackgrass (Alopecurus myosuroides), and annual bluegrass (Poa annua), which are grass weeds, were seeded thereto. In a pot that was prepared as described above, seeds of corn, soybean, cotton, wheat, and rice were seeded. The pots were irrigated, and one day after, chemicals were sprayed thereto. The spraying was performed by using a track sprayer (R&D Sprayer, USA) equipped with a Teejet 8002 (Spraying Systems Co., USA) nozzle, and a spraying amount was adjusted at 300 L/ha. A spraying solution was prepared by dissolving test materials or references in acetone and adding the same amount of 0.2%(v/v) tween 20 aqueous solution thereto. Application rates were 500, 250, 125, and 62.5 g/ha. The pots were placed in a greenhouse in which during day, the temperature was maintained at a temperature of 25 to 30° C., and during night, the temperature was maintained at a temperature of 15 to 25° C., and the pots were periodically irrigated. Four weeks after the spraying the test materials or References, effects and phytotoxicity of the respective weeds and crops were evaluated in a scale of 0 to 10 (0: no effects, 10: complete death), and results thereof are shown in Table 4 below.
(§2) Pots containing crops and weeds were prepared in the same manner as in Example 7, and then, in the second week in which crops and weeds entered into about 3 leaf stage, the test materials and the references were sprayed thereto in the same manner as described above. The rates were 1,000, 500, 250, and 125 g/ha. Four weeks after the spraying of the test materials or the references, herbicidal efficacy and phytotoxicity to the respective weeds and crops were evaluated in a scale of 0 to 10 (0: no effects, 10: complete death).

| Compound | Herbicidal efficacy, Echinochloa crusgalli |
| --- | --- |
| Cc1ccccc1C1=NOC(C)(COCc2ccccc2)C1 (stereo not drawn) [Reference C] | 1 |

same assay, conditions: post-emergence, 250 g/ha, 4 weeks after spraying, scale 0 to 10

| Compound | Herbicidal efficacy, Echinochloa crusgalli |
| --- | --- |
| Cc1ccccc1C1=NOC(C)(COCc2ccccc2)C1 (stereo not drawn) [Reference C] | 3 |

same assay, conditions: post-emergence, 500 g/ha, 4 weeks after spraying, scale 0 to 10

| Compound | Herbicidal efficacy, Echinochloa crusgalli |
| --- | --- |
| Cc1ccccc1C1=NOC(C)(COCc2ccccc2)C1 (stereo not drawn) [Reference C] | 4 |

same assay, conditions: post-emergence, 1,000 g/ha, 4 weeks after spraying, scale 0 to 10

| Compound | Herbicidal efficacy, Echinochloa crusgalli |
| --- | --- |
| Cc1ccccc1C1=NOC(C)(COCc2ccccc2)C1 (stereo not drawn) [Reference C] | 7 |

test system: Wheat; assay: Post-emergence treatment, phytotoxicity to wheat; assay type: in vivo; details: post-emergence (about 3 leaf stage), 1,000 g/ha, 4 weeks after spraying, scale 0 to 10 (0: no effects, 10: complete death)
Protocol: as §1, §2

| Compound | Phytotoxicity, Wheat |
| --- | --- |
| Cc1ccccc1C1=NOC(C)(COCc2ccccc2)C1 (stereo not drawn) [Reference C] | 0 |

test system: Soybean; assay: Post-emergence treatment, phytotoxicity to soybean; assay type: in vivo; details: post-emergence (about 3 leaf stage), 1,000 g/ha, 4 weeks after spraying, scale 0 to 10 (0: no effects, 10: complete death)
Protocol: as §1, §2

| Compound | Phytotoxicity, Soybean |
| --- | --- |
| Cc1ccccc1C1=NOC(C)(COCc2ccccc2)C1 (stereo not drawn) [Reference C] | 0 |

test system: Rice; assay: Pre-emergence treatment, phytotoxicity to rice; assay type: in vivo; details: 500 g/ha, 4 weeks after spraying, scale 0 to 10 (0: no effects, 10: complete death)
Protocol: as §1

| Compound | Phytotoxicity, Rice |
| --- | --- |
| Cc1ccccc1C1=NOC(C)(COCc2ccccc2)C1 (stereo not drawn) [Reference C] | 0 |

test system: Wheat; assay: Pre-emergence treatment, phytotoxicity to wheat; assay type: in vivo; details: 500 g/ha, 4 weeks after spraying, scale 0 to 10 (0: no effects, 10: complete death)
Protocol: as §1

| Compound | Phytotoxicity, Wheat |
| --- | --- |
| Cc1ccccc1C1=NOC(C)(COCc2ccccc2)C1 (stereo not drawn) [Reference C] | 0 |

test system: Corn; assay: Pre-emergence treatment, phytotoxicity to corn; assay type: in vivo; details: 500 g/ha, 4 weeks after spraying, scale 0 to 10 (0: no effects, 10: complete death)
Protocol: as §1

| Compound | Phytotoxicity, Corn |
| --- | --- |
| Cc1ccccc1C1=NOC(C)(COCc2ccccc2)C1 (stereo not drawn) [Reference C] | 1 |

test system: Digitaria sanguinalis; assay: Pre-emergence treatment, herbicidal efficacy on large crabgrass; assay type: in vivo; details: 62.5 g/ha, 4 weeks after spraying, scale 0 to 10
Protocol: as §1

| Compound | Herbicidal efficacy, Digitaria sanguinalis |
| --- | --- |
| Cc1ccccc1C1=NOC(C)(COCc2ccccc2)C1 (stereo not drawn) [Reference C] | 0 |

same assay, conditions: 125 g/ha, 4 weeks after spraying, scale 0 to 10

| Compound | Herbicidal efficacy, Digitaria sanguinalis |
| --- | --- |
| Cc1ccccc1C1=NOC(C)(COCc2ccccc2)C1 (stereo not drawn) [Reference C] | 6 |

same assay, conditions: 250 g/ha, 4 weeks after spraying, scale 0 to 10

| Compound | Herbicidal efficacy, Digitaria sanguinalis |
| --- | --- |
| Cc1ccccc1C1=NOC(C)(COCc2ccccc2)C1 (stereo not drawn) [Reference C] | 9 |

same assay, conditions: 500 g/ha, 4 weeks after spraying, scale 0 to 10

| Compound | Herbicidal efficacy, Digitaria sanguinalis |
| --- | --- |
| Cc1ccccc1C1=NOC(C)(COCc2ccccc2)C1 (stereo not drawn) [Reference C] | 10 |

test system: Soybean; assay: Pre-emergence treatment, phytotoxicity to soybean; assay type: in vivo; details: 500 g/ha, 4 weeks after spraying, scale 0 to 10 (0: no effects, 10: complete death)
Protocol: as §1

| Compound | Phytotoxicity, Soybean |
| --- | --- |
| Cc1ccccc1C1=NOC(C)(COCc2ccccc2)C1 (stereo not drawn) [Reference C] | 1 |

test system: Cotton; assay: Pre-emergence treatment, phytotoxicity to cotton; assay type: in vivo; details: 500 g/ha, 4 weeks after spraying, scale 0 to 10 (0: no effects, 10: complete death)
Protocol: as §1

| Compound | Phytotoxicity, Cotton |
| --- | --- |
| Cc1ccccc1C1=NOC(C)(COCc2ccccc2)C1 (stereo not drawn) [Reference C] | 1 |

test system: Digitaria sanguinalis; assay: Post-emergence treatment, herbicidal efficacy on large crabgrass; assay type: in vivo; details: post-emergence, 125 g/ha, 4 weeks after spraying, scale 0 to 10
Protocol: as §1, §2

| Compound | Herbicidal efficacy, Digitaria sanguinalis |
| --- | --- |
| Cc1ccccc1C1=NOC(C)(COCc2ccccc2)C1 (stereo not drawn) [Reference C] | 1 |

same assay, conditions: post-emergence, 250 g/ha, 4 weeks after spraying, scale 0 to 10

| Compound | Herbicidal efficacy, Digitaria sanguinalis |
| --- | --- |
| Cc1ccccc1C1=NOC(C)(COCc2ccccc2)C1 (stereo not drawn) [Reference C] | 3 |

same assay, conditions: post-emergence, 500 g/ha, 4 weeks after spraying, scale 0 to 10

| Compound | Herbicidal efficacy, Digitaria sanguinalis |
| --- | --- |
| Cc1ccccc1C1=NOC(C)(COCc2ccccc2)C1 (stereo not drawn) [Reference C] | 4 |

same assay, conditions: post-emergence, 1,000 g/ha, 4 weeks after spraying, scale 0 to 10

| Compound | Herbicidal efficacy, Digitaria sanguinalis |
| --- | --- |
| Cc1ccccc1C1=NOC(C)(COCc2ccccc2)C1 (stereo not drawn) [Reference C] | 7 |

test system: Rice; assay: Post-emergence treatment, phytotoxicity to rice; assay type: in vivo; details: post-emergence (about 3 leaf stage), 1,000 g/ha, 4 weeks after spraying, scale 0 to 10 (0: no effects, 10: complete death)
Protocol: as §1, §2

| Compound | Phytotoxicity, Rice |
| --- | --- |
| Cc1ccccc1C1=NOC(C)(COCc2ccccc2)C1 (stereo not drawn) [Reference C] | 0 |

test system: Corn; assay: Post-emergence treatment, phytotoxicity to corn; assay type: in vivo; details: post-emergence (about 3 leaf stage), 1,000 g/ha, 4 weeks after spraying, scale 0 to 10 (0: no effects, 10: complete death)
Protocol: as §1, §2

| Compound | Phytotoxicity, Corn |
| --- | --- |
| Cc1ccccc1C1=NOC(C)(COCc2ccccc2)C1 (stereo not drawn) [Reference C] | 2 |

test system: Poa annua; assay: Pre-emergence treatment, herbicidal efficacy on annual bluegrass; assay type: in vivo; details: 62.5 g/ha, 4 weeks after spraying, scale 0 to 10
Protocol: as §1

| Compound | Herbicidal efficacy, Poa annua |
| --- | --- |
| Cc1ccccc1C1=NOC(C)(COCc2ccccc2)C1 (stereo not drawn) [Reference C] | 2 |

same assay, conditions: 125 g/ha, 4 weeks after spraying, scale 0 to 10

| Compound | Herbicidal efficacy, Poa annua |
| --- | --- |
| Cc1ccccc1C1=NOC(C)(COCc2ccccc2)C1 (stereo not drawn) [Reference C] | 5 |

same assay, conditions: 250 g/ha, 4 weeks after spraying, scale 0 to 10

| Compound | Herbicidal efficacy, Poa annua |
| --- | --- |
| Cc1ccccc1C1=NOC(C)(COCc2ccccc2)C1 (stereo not drawn) [Reference C] | 9 |

same assay, conditions: 500 g/ha, 4 weeks after spraying, scale 0 to 10

| Compound | Herbicidal efficacy, Poa annua |
| --- | --- |
| Cc1ccccc1C1=NOC(C)(COCc2ccccc2)C1 (stereo not drawn) [Reference C] | 9 |

test system: Poa annua; assay: Post-emergence treatment, herbicidal efficacy on annual bluegrass; assay type: in vivo; details: post-emergence, 125 g/ha, 4 weeks after spraying, scale 0 to 10
Protocol: as §1, §2

| Compound | Herbicidal efficacy, Poa annua |
| --- | --- |
| Cc1ccccc1C1=NOC(C)(COCc2ccccc2)C1 (stereo not drawn) [Reference C] | 0 |

same assay, conditions: post-emergence, 250 g/ha, 4 weeks after spraying, scale 0 to 10

| Compound | Herbicidal efficacy, Poa annua |
| --- | --- |
| Cc1ccccc1C1=NOC(C)(COCc2ccccc2)C1 (stereo not drawn) [Reference C] | 2 |

same assay, conditions: post-emergence, 500 g/ha, 4 weeks after spraying, scale 0 to 10

| Compound | Herbicidal efficacy, Poa annua |
| --- | --- |
| Cc1ccccc1C1=NOC(C)(COCc2ccccc2)C1 (stereo not drawn) [Reference C] | 3 |

same assay, conditions: post-emergence, 1,000 g/ha, 4 weeks after spraying, scale 0 to 10

| Compound | Herbicidal efficacy, Poa annua |
| --- | --- |
| Cc1ccccc1C1=NOC(C)(COCc2ccccc2)C1 (stereo not drawn) [Reference C] | 4 |

test system: Alopecurus myosuroides; assay: Post-emergence treatment, herbicidal efficacy on blackgrass; assay type: in vivo; details: post-emergence, 125 g/ha, 4 weeks after spraying, scale 0 to 10
Protocol: as §1, §2

| Compound | Herbicidal efficacy, Alopecurus myosuroides |
| --- | --- |
| Cc1ccccc1C1=NOC(C)(COCc2ccccc2)C1 (stereo not drawn) [Reference C] | 0 |

same assay, conditions: post-emergence, 250 g/ha, 4 weeks after spraying, scale 0 to 10

| Compound | Herbicidal efficacy, Alopecurus myosuroides |
| --- | --- |
| Cc1ccccc1C1=NOC(C)(COCc2ccccc2)C1 (stereo not drawn) [Reference C] | 0 |

same assay, conditions: post-emergence, 500 g/ha, 4 weeks after spraying, scale 0 to 10

| Compound | Herbicidal efficacy, Alopecurus myosuroides |
| --- | --- |
| Cc1ccccc1C1=NOC(C)(COCc2ccccc2)C1 (stereo not drawn) [Reference C] | 3 |

same assay, conditions: post-emergence, 1,000 g/ha, 4 weeks after spraying, scale 0 to 10

| Compound | Herbicidal efficacy, Alopecurus myosuroides |
| --- | --- |
| Cc1ccccc1C1=NOC(C)(COCc2ccccc2)C1 (stereo not drawn) [Reference C] | 5 |

test system: Echinochloa crusgalli; assay: Pre-emergence treatment, herbicidal efficacy on barnyardgrass; assay type: in vivo; details: 62.5 g/ha, 4 weeks after spraying, scale 0 to 10
Protocol: as §1

| Compound | Herbicidal efficacy, Echinochloa crusgalli |
| --- | --- |
| Cc1ccccc1C1=NOC(C)(COCc2ccccc2)C1 (stereo not drawn) [Reference C] | 2 |

same assay, conditions: 125 g/ha, 4 weeks after spraying, scale 0 to 10

| Compound | Herbicidal efficacy, Echinochloa crusgalli |
| --- | --- |
| Cc1ccccc1C1=NOC(C)(COCc2ccccc2)C1 (stereo not drawn) [Reference C] | 5 |

same assay, conditions: 250 g/ha, 4 weeks after spraying, scale 0 to 10

| Compound | Herbicidal efficacy, Echinochloa crusgalli |
| --- | --- |
| Cc1ccccc1C1=NOC(C)(COCc2ccccc2)C1 (stereo not drawn) [Reference C] | 8 |

same assay, conditions: 500 g/ha, 4 weeks after spraying, scale 0 to 10 (0: no effects, 10: complete death)

| Compound | Herbicidal efficacy, Echinochloa crusgalli |
| --- | --- |
| Cc1ccccc1C1=NOC(C)(COCc2ccccc2)C1 (stereo not drawn) [Reference C] | 10 |

test system: Alopecurus myosuroides; assay: Pre-emergence treatment, herbicidal efficacy on blackgrass; assay type: in vivo; details: 62.5 g/ha, 4 weeks after spraying, scale 0 to 10
Protocol: as §1

| Compound | Herbicidal efficacy, Alopecurus myosuroides |
| --- | --- |
| Cc1ccccc1C1=NOC(C)(COCc2ccccc2)C1 (stereo not drawn) [Reference C] | 0 |

same assay, conditions: 125 g/ha, 4 weeks after spraying, scale 0 to 10

| Compound | Herbicidal efficacy, Alopecurus myosuroides |
| --- | --- |
| Cc1ccccc1C1=NOC(C)(COCc2ccccc2)C1 (stereo not drawn) [Reference C] | 2 |

same assay, conditions: 250 g/ha, 4 weeks after spraying, scale 0 to 10

| Compound | Herbicidal efficacy, Alopecurus myosuroides |
| --- | --- |
| Cc1ccccc1C1=NOC(C)(COCc2ccccc2)C1 (stereo not drawn) [Reference C] | 4 |

same assay, conditions: 500 g/ha, 4 weeks after spraying, scale 0 to 10

| Compound | Herbicidal efficacy, Alopecurus myosuroides |
| --- | --- |
| Cc1ccccc1C1=NOC(C)(COCc2ccccc2)C1 (stereo not drawn) [Reference C] | 6 |

test system: Cotton; assay: Post-emergence treatment, phytotoxicity to cotton; assay type: in vivo; details: post-emergence (about 3 leaf stage), 1,000 g/ha, 4 weeks after spraying, scale 0 to 10 (0: no effects, 10: complete death)
Protocol: as §1, §2

| Compound | Phytotoxicity, Cotton |
| --- | --- |
| Cc1ccccc1C1=NOC(C)(COCc2ccccc2)C1 (stereo not drawn) [Reference C] | 0 |
